Assay results published in patent publication US7524853B2 (Solvay Pharmaceuticals B.V., priority 2003, dated 2009).

Key:
Format in all cases: cell-based
[1] = biological target: T1, 17β-hydroxysteroid dehydrogenase type 1 (17β-HSD type 1) (Homo sapiens, UniProt P14061); test: Inhibition of 17β-HSD type 1 in MCF-7 cells stably expressing the isoenzyme (tritium labeled estrone conversion, HPLC); conditions: MCF-7 cells expressing 17β-HSD type 1, 2 nM tritium labeled estrone; for inhibition at 1 µM / inhibition at 10 µM: MCF7; for inhibition at 1 µM: read-out: % Inhibition HSD1 1 μM; for inhibition at 10 µM: read-out: % Inhibition HSD1 10 μM
T1 construct: expressed in transfected cells; host or cells: MCF-7
T1 sequence (P14061 1-328): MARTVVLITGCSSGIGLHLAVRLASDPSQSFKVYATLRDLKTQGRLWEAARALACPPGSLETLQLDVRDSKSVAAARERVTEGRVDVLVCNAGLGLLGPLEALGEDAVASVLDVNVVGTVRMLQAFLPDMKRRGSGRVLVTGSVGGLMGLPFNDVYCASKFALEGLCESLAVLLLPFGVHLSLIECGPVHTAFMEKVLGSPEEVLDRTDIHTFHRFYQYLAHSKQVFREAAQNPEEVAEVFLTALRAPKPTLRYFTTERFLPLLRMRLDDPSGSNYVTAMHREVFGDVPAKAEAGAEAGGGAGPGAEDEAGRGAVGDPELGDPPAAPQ
How it was run: (§1)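 MCF-7 lines stably expressing each 17β-HSD isoenzyme incubated in growth medium with compound at two concentrations and 2 nM tritiated substrate (estrone, type 1; estradiol, type 2; androstenedione, type 3). Reaction stopped with TCA; conversion measured by HPLC with flow scintillation, inhibition relative to compound-free control.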

[2] = biological target: T2, 17β-hydroxysteroid dehydrogenase type 2 (17β-HSD type 2) (Homo sapiens, UniProt P37059); test: Inhibition of 17β-HSD type 2 in MCF-7 cells stably expressing the isoenzyme (tritium labeled estradiol conversion, HPLC); conditions: MCF-7 cells expressing 17β-HSD type 2, 2 nM tritium labeled estradiol; for inhibition at 1 µM / inhibition at 10 µM: MCF7; for inhibition at 1 µM: read-out: % Inhibition HSD2 1 μM; for inhibition at 10 µM: read-out: % Inhibition HSD2 10 μM
T2 construct: expressed in transfected cells; host or cells: MCF-7
T2 sequence (P37059 1-387): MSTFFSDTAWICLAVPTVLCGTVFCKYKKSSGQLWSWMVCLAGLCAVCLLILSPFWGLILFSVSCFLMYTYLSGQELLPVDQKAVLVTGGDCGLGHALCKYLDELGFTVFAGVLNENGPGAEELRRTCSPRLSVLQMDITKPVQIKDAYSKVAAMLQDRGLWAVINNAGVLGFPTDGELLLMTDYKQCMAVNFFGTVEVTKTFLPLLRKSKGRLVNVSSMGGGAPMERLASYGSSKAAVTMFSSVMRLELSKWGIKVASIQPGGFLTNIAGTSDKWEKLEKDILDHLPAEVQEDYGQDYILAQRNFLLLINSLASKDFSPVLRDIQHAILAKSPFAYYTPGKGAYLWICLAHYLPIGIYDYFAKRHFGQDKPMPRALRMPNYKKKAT
How it was run: as §1

[3] = biological target: T3, 17β-hydroxysteroid dehydrogenase type 3 (17β-HSD type 3) (Homo sapiens, UniProt P37058); test: Inhibition of 17β-HSD type 3 in MCF-7 cells stably expressing the isoenzyme (tritium labeled androstenedione conversion, HPLC); conditions: MCF-7 cells expressing 17β-HSD type 3, 2 nM tritium labeled androstenedione; for inhibition at 1 µM / inhibition at 10 µM: MCF7; for inhibition at 1 µM: read-out: % Inhibition HSD3 1 μM; for inhibition at 10 µM: read-out: % Inhibition HSD3 10 μM
T3 construct: expressed in transfected cells; host or cells: MCF-7
T3 sequence (P37058 1-310): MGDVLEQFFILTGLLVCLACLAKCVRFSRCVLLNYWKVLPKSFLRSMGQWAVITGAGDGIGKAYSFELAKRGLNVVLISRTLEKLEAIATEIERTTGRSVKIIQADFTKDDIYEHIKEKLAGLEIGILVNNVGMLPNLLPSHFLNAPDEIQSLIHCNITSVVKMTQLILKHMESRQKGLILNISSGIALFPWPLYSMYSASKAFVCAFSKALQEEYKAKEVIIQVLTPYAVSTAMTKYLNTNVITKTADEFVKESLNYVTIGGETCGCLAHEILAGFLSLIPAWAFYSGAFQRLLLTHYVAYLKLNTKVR
How it was run: as §1

Compound	inhibition at 1 µM ([1]; 1 μM test compound) [%]	inhibition at 10 µM ([1]; 10 μM test compound) [%]	inhibition at 1 µM ([2]; 1 μM test compound) [%]	inhibition at 10 µM ([2]; 10 μM test compound) [%]	inhibition at 1 µM ([3]; 1 μM test compound) [%]	inhibition at 10 µM ([3]; 10 μM test compound) [%]	% Inhibition HSD1 1 μM ([1]; 1 μM test compound) [%]	% Inhibition HSD1 10 μM ([1]; 10 μM test compound) [%]	% Inhibition HSD2 1 μM ([2]; 1 μM test compound) [%]	% Inhibition HSD2 10 μM ([2]; 10 μM test compound) [%]	% Inhibition HSD3 1 μM ([3]; 1 μM test compound) [%]	% Inhibition HSD3 10 μM ([3]; 10 μM test compound) [%]
CCCCn1c(-c2cc(OC)c(OC)c(OC)c2Br)nc2sc3c(c2c1=O)CC(C)C(Br)C3=O (stereo not drawn) [No. 693, 3-Butyl-7-bromo-6-methyl-2-(2-bromo-3,4,5-trimethoxyphenyl)-6,7-dihydro-3H-benzo[4,5]thieno[2,3-d]pyrimidin-4,8-dione]	15	5.7	18.1	18.2	5.2	16.8	–	–	–	–	–	–
Cc1nc2sc3c(c2c(=O)n1-c1ccccc1)CCCC3=O [No. 25, 2-Methyl-3-phenyl-6,7-dihydro-3H,5H-benzo[4,5]thieno[2,3-d]pyrimidine-4,8-dione]	5.9	13.8	5.5	7.9	25.7	29	–	–	–	–	–	–
COCCn1c(-c2cc(OC)c(OC)c(OC)c2)nc2sc3c(c2c1=O)CCCC3 [No. 108, 3-(2-Methoxyethyl)-2-(3,4,5-trimethoxyphenyl)-5,6,7,8-tetrahydro-3H-benzo[4,5]thieno[2,3-d]pyrimidin-4-one]	5.2	11	9.6	7.4	0.8	9.8	–	–	–	–	–	–
CCC(C)Cn1c(-c2cc(OC)c(OC)c(OC)c2Cl)nc2sc3c(c2c1=O)CCC(Cl)C3=O (stereo not drawn) [No. 141, 7-Chloro-2-(2-chloro-3,4,5-trimethoxyphenyl)-3-(2-methylbutyl)-6,7-dihydro-3H,5H-benzo[4,5]thieno[2,3-d]pyrimidine-4,8-dione]	25	58.9	3	1.1	2.7	22.7	–	–	–	–	–	–
COc1cc(-c2nc3sc4c(Oc5ccccc5)c(C=O)ccc4c3c(=O)n2Cc2ccccc2)cc(OC)c1OC [No. 5, 3-Benzyl-4-oxo-8-phenoxy-2-(3,4,5-trimethoxyphenyl)-3,4-dihydro-benzo[4,5]thieno[2,3-d]pyrimidine-7-carbaldehyde]	-1	26.1	-0.9	17	9.4	9.1	–	–	–	–	–	–
COc1cc(-c2nc3sc4c(c3c(=O)n2CC(C)C)CCC(Br)C4=O)cc(OC)c1OC (stereo not drawn) [No. 115, 7-Bromo-3-isobutyl-2-(3,4,5-trimethoxyphenyl)-6,7-dihydro-3H,5H-benzo[4,5]thieno[2,3-d]pyrimidine-4,8-dione]	22.9	70.3	18.7	19.5	7.6	20.7	–	–	–	–	–	–
CCCc1nc2sc3c(c2c(=O)n1Cc1ccco1)CCCC3=O [No. 102, 3-(Furan-2-ylmethyl)-2-propyl-6,7-dihydro-3H,5H-benzo[4,5]thieno[2,3-d]pyrimidine-4,8-dione]	14.8	57.5	13.6	18.6	6.7	51.2	–	–	–	–	–	–
O=c1c2c(nc(Cc3ccccc3)n1CCc1cccs1)sc1c(O)cccc12 [No. 641]	–	–	–	–	–	–	20.4	35.0	10.5	36.9	13.2	55.7
CCCCn1c(-c2cc(OC)c(OC)c(OC)c2)nc2sc3c(c2c1=O)CCC(Br)(Br)C3=O [No. 88, 3-Butyl-7,7-dibromo-2-(3,4,5-trimethoxyphenyl)-6,7-dihydro-3H,5H-benzo[4,5]thieno[2,3-d]pyrimidine-4,8-dione]	25	40.5	25.9	29.9	20.4	23.3	–	–	–	–	–	–

Next, values leading:

inhibition at 1 µM ([1]; 1 μM test compound) [%]	inhibition at 10 µM ([1]; 10 μM test compound) [%]	inhibition at 1 µM ([2]; 1 μM test compound) [%]	inhibition at 10 µM ([2]; 10 μM test compound) [%]	inhibition at 1 µM ([3]; 1 μM test compound) [%]	inhibition at 10 µM ([3]; 10 μM test compound) [%]	% Inhibition HSD1 1 μM ([1]; 1 μM test compound) [%]	% Inhibition HSD1 10 μM ([1]; 10 μM test compound) [%]	% Inhibition HSD2 1 μM ([2]; 1 μM test compound) [%]	% Inhibition HSD2 10 μM ([2]; 10 μM test compound) [%]	% Inhibition HSD3 1 μM ([3]; 1 μM test compound) [%]	% Inhibition HSD3 10 μM ([3]; 10 μM test compound) [%]	Compound
-9.9	-6.5	-5.5	7.3	18.5	61.2	–	–	–	–	–	–	CCOC(=O)C1=Cc2sc3nc(-c4ccc(OC)cc4)n(Cc4ccccc4)c(=O)c3c2CC1 [No. 15, 3-Benzyl-2-(p-methoxyphenyl)-4-oxo-3,4,5,6-tetrahydro-benzo[4,5]thieno[2,3-d]pyrimidine-7-carboxylic acid ethyl ester]
16.8	32.9	9.2	18.8	8.1	37.7	–	–	–	–	–	–	COc1cc(-c2nc3sc4c(c3c(=O)n2Cc2ccccc2)C(C)CCC4)cc(OC)c1OC (stereo not drawn) [No. 683, 3-Benzyl-5-methyl-2-(3,4,5-trimethoxyphenyl)-5,6,7,8-tetrahydro-3H-benzo[4,5]thieno[2,3-d]pyrimidin-4-one]
24	20.8	36.7	40	17.6	31.7	–	–	–	–	–	–	O=C1c2sc3nc(-c4ccccc4)n(Cc4ccccc4)c(=O)c3c2CCC1(Br)Br [No. 59, 3-Benzyl-7,7-dibromo-2-phenyl-6,7-dihydro-3H,5H-benzo[4,5]thieno[2,3-d]pyrimidine-4,8-dione]
28	43.6	19.5	19.9	3	59.1	–	–	–	–	–	–	COc1ccc(-c2nc3sc4c(c3c(=O)n2Cc2ccccc2)CCCC4=O)cc1 [No. 13, 3-Benzyl-2-(p-methoxyphenyl)-6,7-dihydro-3H,5H-benzo[4,5]thieno[2,3-d]pyrimidine-4,8-dione]
37.2	86.6	9.8	19.5	9.6	70	–	–	–	–	–	–	COC(=O)c1nc2sc3c(c2c(=O)n1Cc1ccccc1)CCCC3=O [No. 32, 3-Benzyl-4,8-dioxo-3,4,5,6,7,8-hexahydro-benzo[4,5]thieno[2,3-d]pyrimidine-2-carboxylic acid methyl ester]
21.5	21.6	25.4	14.2	14.4	22.3	–	–	–	–	–	–	COc1cc(-c2nc3sc4c(c3c(=O)n2Cc2ccccc2)CC(C)CC4=O)cc(OC)c1OC (stereo not drawn) [No. 688, 3-Benzyl-6-methyl-2-(3,4,5-trimethoxyphenyl)-6,7-dihydro-3H,5H-benzo[4,5]thieno[2,3-d]pyrimidin-4,8-dione]
33.1	16.8	32.1	35.6	7.8	26.2	–	–	–	–	–	–	COc1cccc(-c2nc3sc4c(c3c(=O)n2Cc2ccccc2)CCC(Br)(Br)C4=O)c1 [No. 81, 3-Benzyl-7,7-dibromo-2-(m-methoxyphenyl)-6,7-dihydro-3H,5H-benzo[4,5]thieno[2,3-d]pyrimidine-4,8-dione]
